Experimental data from paper doi:10.1101/2025.09.05.673737v1 (biorxiv, 2025).

Target: T1, ArpA (Streptomyces griseus, UniProt Q9ZN78)
T1 sequence (Q9ZN78 1-276): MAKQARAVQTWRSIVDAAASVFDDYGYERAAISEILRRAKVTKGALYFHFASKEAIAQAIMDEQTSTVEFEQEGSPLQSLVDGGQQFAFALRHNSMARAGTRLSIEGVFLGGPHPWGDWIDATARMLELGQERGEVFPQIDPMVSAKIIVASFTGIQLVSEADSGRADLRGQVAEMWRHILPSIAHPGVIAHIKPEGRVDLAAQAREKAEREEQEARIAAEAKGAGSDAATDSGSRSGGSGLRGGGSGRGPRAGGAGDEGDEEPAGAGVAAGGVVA
Assay: E. coli pTOTAL biosensor, GFP derepression dose-response
Type: cell-based

EC50 [µM]	SMILES
0.39	CC(C)CCCCC(=O)C1C(=O)OC[C@H]1CO (some centres unmarked) [A-factor]
18.1	CC(C)CCCC[C@@H](O)[C@@H]1C(=O)OC[C@H]1CO [SCB1]
